Experimental data: patent US7129356B2, “Farnesyl transferase inhibiting 4-substituted quinoline and quinazoline derivatives” (Janssen Pharmaceutica N.V., priority 2000, dated 2006)

First: O=c1cc(Oc2ccccc2)c2cc(C(c3ccc(Cl)cc3)n3ccnc3)ccc2[nH]1 (racemic) [Example B1, (±)-6-[(4-chlorophenyl)-1H-imidazol-1-ylmethyl]-4-phenoxy-2(1H)-quinolinone]
Second: O=c1[nH]c2ccc(C(c3ccc(Cl)cc3)n3ccnc3-c3ccccc3)cc2c(Oc2cccc(Cl)c2)c1CO (stereo not shown) [Example B5, 4-(3-chlorophenoxy)-6-[(4-chlorophenyl)(2-phenyl-1H-imidazol-1-yl)methyl]-3-(hydroxymethyl)-2(1H)-quinolinone]
The melting point of the first is lower: 233.3 °C for the first, 246 °C for the second.

Compared with `Cn1cncc1C(O)(c1ccc(Cl)cc1)c1ccc2c(c1)c(CCc1cccc(Cl)c1)cc(=O)n2C` (stereo not shown) [Example B2, 4-[2-(3-chlorophenyl)ethyl]-6-[(4-chlorophenyl)hydroxy(1-methyl-1H-imidazol-5-yl)methyl]-1-methyl-2(1H)-quinolinone], `Cn1cncc1C(N)(c1ccc(Cl)cc1)c1ccc2c(c1)c(CCc1cccc(Cl)c1)cc(=O)n2C` (stereo not shown) [Example B3, 6-[amino(4-chlorophenyl)(1-methyl-1H-imidazol-5-yl)methyl]-4-[2-(3-chlorophenyl)ethyl]-1-methyl-2(1H)-quinolinone] is lower in melting point: 190 °C for the first, 165 °C for the second.

Going from `CCOC(=O)c1c(Oc2cccc(Cl)c2)c2cc(C(c3ccc(Cl)cc3)c3cnc(-c4ccccc4)[nH]3)ccc2[nH]c1=O` (stereo not shown) [Example B4 F2, 4-(3-chlorophenoxy)-6-[(4-chlorophenyl)(2-phenyl-1H-imidazol-5-yl)methyl]-1,2-dihydro-2-oxo-3-quinolinecarboxylic acid ethyl ester] to `Cn1c(=O)cc(CCc2cccc(Cl)c2)c2cc(C(O)(c3ccc(Cl)cc3)c3cccnc3)ccc21` (stereo not shown) [Example B14, 4-[2-(3-chlorophenyl)ethyl]-6-[(4-chlorophenyl)hydroxy-3-pyridinylmethyl]-1-methyl-2(1H)-quinolinone], the melting point falls from 189 °C to 115 °C.

Going from `CN(C(=O)c1cc(=O)n(C)c2ccc(C(O)(c3ccc(Cl)cc3)c3cncn3C)cc12)c1cccc(Cl)c1` (stereo not shown) [Example B11, N-(3-chlorophenyl)-6-[(4-chlorophenyl)hydroxy(1-methyl-1H-imidazol-5-yl)methyl]-1,2-dihydro-N,1-dimethyl-2-oxo-4-quinolinecarboxamide] to `Cc1cccc(N(C)C(=O)c2cc(=O)n(C)c3ccc(C(O)(c4ccc(Cl)cc4)c4cncn4C)cc23)c1` (stereo not shown) [Example B12, 6-[(4-chlorophenyl)hydroxy(1-methyl-1H-imidazol-5-yl)methyl]-1,2-dihydro-N,1-dimethyl-N-(3-methylphenyl)-2-oxo-4-quinolinecarboxamide], the melting point falls from 218 °C to 185 °C.

Compared with `Cn1c(=O)cc(CCc2cccc(Cl)c2)c2cc(C(N)(c3ccc(Cl)cc3)c3cccnc3)ccc21` (stereo not shown) [Example B15, 6-[amino(4-chlorophenyl)-3-pyridinylmethyl]-4-[2-(3-chlorophenyl)ethyl]-1-methyl-2(1H)-quinolinone], `Cn1cnnc1C(O)(c1ccc(Cl)cc1)c1ccc2c(c1)c(CCc1cccc(Cl)c1)cc(=O)n2C` (stereo not shown) [Example B20, 4-[2-(3-chlorophenyl)ethyl]-6-[(4-chlorophenyl)hydroxy(4-methyl-4H-1,2,4-triazol-3-yl)methyl]-1-methyl-2(1H)-quinolinone] is higher in melting point: 90 °C for the first, 200 °C for the second.
